Among the data in patent US8541434B2, “Ethynyl-substituted pyridine and pyrimidine derivatives and their use in treating viral infections” (Merck Sharp & Dohme Corp., priority 2008, dated 2013) are EC90 values, retold here.

A value given as a limit tells only on which side of the number the result lay.

In the experiment the test system is HCV replicon cells. As to the kind of experiment: Cell-based HCV replicon assay (replicon RNA level by real time PCR, Taqman). Particulars: Hepatitis C virus, 72 h, harvested on day 3, EC90 = concentration necessary to achieve ΔCT=3.2 over the baseline, read-out: EC90 Range. How it is done:
Assays Cell-Based HCV Replicon Assay
To measure cell-based anti-HCV activity of the compounds of the present invention, replicon cells were seeded at 5000 cells/well in 96-well collagen I-coated Nunc plates in the presence of the compound of the invention. […] The final concentration of DMSO was 0.5%, fetal bovine serum was 10%, in the assay media. Cells were harvested on day 3 by the addition of 1× cell lysis buffer (Ambion cat #8721). The replicon RNA level was measured using real time PCR (Taqman assay). The amplicon was located in 5B. […] GAPDH RNA was used as endogenous control and was amplified in the same reaction as NS5B (multiplex PCR) using primers and VIC-labeled probe recommended by the manufacturer (PE Applied Biosystem). The real-time RT-PCR reactions were run on ABI PRISM 7900HT Sequence Detection System using the following program: 48° C. for 30 min, 95° C. for 10 min, 40 cycles of 95° C. for 15 sec, 60° C. for 1 min. The ACT values (CT5B-CTGAPDH) were plotted against the concentration of test compound and fitted to the sigmoid dose-response model using GraphPad PRISM software. EC50 was defined as the concentration of inhibitor necessary to achieve ΔCT=1 over the projected baseline; EC90 the concentration necessary to achieve ΔCT=3.2 over the baseline. Alternatively, to quantitate the absolute amount of replicon RNA, a standard curve was established by including serially diluted T7 transcripts of replicon RNA in the Taqman assay. All Taqman reagents were from PE Applied Biosystems. Such an assay procedure was described in detail in e.g. Malcolm et al., Antimicrobial Agents and Chemotherapy 50: 1013-1020 (2006).
Background: Replicon systems follow genome replication, usually without infectious particles.
For the compound `CCOc1ccc(C#Cc2c(C)nc(N)nc2N[C@@H]2C[C@H](CO)[C@@H](O)[C@H]2O)cn1` [Compound 1], the EC90 (usually the concentration at which the effect reaches the 90% level) was not above 0.5 µM.

Turning to `CCOc1ccc(C#Cc2c(Cl)nc(N)nc2N[C@@H]2C[C@H](CO)[C@@H](O)[C@H]2O)c(C)n1` [Compound 2], the EC90 was not above 0.5 µM.

Take `COc1ccc(C#Cc2c(Cl)nc(N)nc2N[C@@H]2C[C@H](CO)[C@@H](O)[C@H]2O)c(C)n1` [Compound 3]: the EC90 was not above 0.5 µM.

For the compound `Cc1ccc(C#Cc2c(Cl)nc(N)nc2N[C@@H]2C[C@H](CO)[C@@H](O)[C@H]2O)cn1` [Compound 5], the EC90 lay within 0.5 to 5 µM.

Take `Cc1ccsc1C#Cc1c(Cl)nc(N)nc1N[C@@H]1C[C@H](CO)[C@@H](O)[C@H]1O` [Compound 7]: the EC90 lay within 0.5 to 5 µM.

On to `Nc1nc(Cl)c(C#Cc2ccc(F)nc2)c(N[C@@H]2C[C@H](CO)[C@@H](O)[C@H]2O)n1` [Compound 8], for which the EC90 fell in the range of 0.5 to 5 µM.

In the case of `Nc1nc(Cl)c(C#Cc2ccc(Cl)nc2)c(N[C@@H]2C[C@H](CO)[C@@H](O)[C@H]2O)n1` [Compound 9], the EC90 is more than 5 µM.

Consider `Nc1nc(Cl)c(C#Cc2cccnc2Cl)c(N[C@@H]2C[C@H](CO)[C@@H](O)[C@H]2O)n1` [Compound 10], for which the EC90 lay within 0.5 to 5 µM.

For the compound `Nc1nc(Cl)c(C#Cc2ccoc2)c(N[C@@H]2C[C@H](CO)[C@@H](O)[C@H]2O)n1` [Compound 11], the EC90 was in the range of 0.5 to 5 µM.

Regarding `COc1ncccc1C#Cc1c(Cl)nc(N)nc1N[C@@H]1C[C@H](CO)[C@@H](O)[C@H]1O` [Compound 12], the EC90 is 0.5 to 5 µM.

For `Nc1nc(Cl)c(C#Cc2ncc[nH]2)c(N[C@@H]2C[C@H](CO)[C@@H](O)[C@H]2O)n1` [Compound 13], the EC90 lay in the range of 0.5 to 5 µM.

For `CC(C)Oc1ncccc1C#Cc1c(Cl)nc(N)nc1N[C@@H]1C[C@H](CO)[C@@H](O)[C@H]1O` [Compound 14], the EC90 was 0.5 to 5 µM.

As to `Cc1ccc(C#Cc2c(Cl)nc(N)nc2N[C@@H]2C[C@H](CO)[C@@H](O)[C@H]2O)c(C)n1` [Compound 16], the EC90 is not above 0.5 µM.

As for `CCc1nc(C)ccc1C#Cc1c(Cl)nc(N)nc1N[C@@H]1C[C@H](CO)[C@@H](O)[C@H]1O` [Compound 17], the EC90 lay within 0.5 to 5 µM.

For the compound `Cc1nc(-c2cccs2)ccc1C#Cc1c(Cl)nc(N)nc1N[C@@H]1C[C@H](CO)[C@@H](O)[C@H]1O` [Compound 18], the EC90 is not above 0.5 µM.

For `CNc1nc(Cl)c(C#Cc2ccc(OC)nc2)c(N[C@@H]2C[C@H](CO)[C@@H](O)[C@H]2O)n1` [Compound 19], the EC90 was not above 0.5 µM.

For `COc1ccc(C#Cc2c(Cl)nc(N)nc2N[C@@H]2C[C@H](CO)[C@@H](O)[C@H]2O)cn1` [Compound 20, (1R,2S,3R,5R)-3-[[2-Amino-6-chloro-5-[2-(2-methoxypyridin-5-yl)ethynyl]-4-pyrimidinyl]amino]-5-(hydroxymethyl)-1,2-cyclopentanediol], the EC90 was not above 0.5 µM.

Consider `CCOc1ccc(C#Cc2c(Cl)nc(N)nc2N[C@@H]2C[C@H](CO)[C@@H](O)[C@H]2O)cn1` [Compound 21], for which the EC90 was not above 0.5 µM.

For `COc1ccc(C#Cc2c(Cl)nc(N)nc2N[C@@H]2C[C@H](CO)[C@@H](O)[C@H]2O)c(OC)n1` [Compound 22], the EC90 was not above 0.5 µM.

For `CCOc1ccc(C#Cc2c(Cl)nc(N(C)C)nc2N[C@@H]2C[C@H](CO)[C@@H](O)[C@H]2O)cn1` [Compound 23], the EC90 is more than 5 µM.

With `COc1ccc(C#Cc2c(Cl)nc(N(C)C)nc2N[C@@H]2C[C@H](CO)[C@@H](O)[C@H]2O)cn1` [Compound 24], the EC90 was more than 5 µM.

On to `Nc1nc(Cl)c(C#Cc2ccc(Cl)cc2)c(N[C@@H]2C[C@H](CO)[C@@H](O)[C@H]2O)n1` [Compound 27], for which the EC90 lay within 0.5 to 5 µM.

Consider `COc1ccc(C#Cc2c(Cl)nc(N)nc2N[C@@H]2C[C@H](CO)[C@@H](O)[C@H]2O)c(C)c1` [Compound 29], for which the EC90 is 0.5 to 5 µM.

For `Cn1cncc1C#Cc1c(Cl)nc(N)nc1N[C@@H]1C[C@H](CO)[C@@H](O)[C@H]1O` [Compound 30], the EC90 is more than 5 µM.

Regarding `Nc1nc(Cl)c(C#Cc2ccc(C3CCCCN3)s2)c(N[C@@H]2C[C@H](CO)[C@@H](O)[C@H]2O)n1` (stereo partly shown) [Compound 31], the EC90 is not above 0.5 µM.

`COC(=O)c1nc(N)sc1C#Cc1c(Cl)nc(N)nc1N[C@@H]1C[C@H](CO)[C@@H](O)[C@H]1O` [Compound 32]: the EC90 is not above 0.5 µM.

Take `Nc1nc(Cl)c(C#Cc2ccc(-c3ccccn3)s2)c(N[C@@H]2C[C@H](CO)[C@@H](O)[C@H]2O)n1` [Compound 34]: the EC90 is not above 0.5 µM.

For `Cc1nc(-c2ccccc2)c(C#Cc2c(Cl)nc(N)nc2N[C@@H]2C[C@H](CO)[C@@H](O)[C@H]2O)s1` [Compound 35], the EC90 is not above 0.5 µM.

Take `Nc1nc(Cl)c(C#Cc2cncs2)c(N[C@@H]2C[C@H](CO)[C@@H](O)[C@H]2O)n1` [Compound 37]: the EC90 lay within 0.5 to 5 µM.

As to `Cc1nc(-c2ccc(C#Cc3c(Cl)nc(N)nc3N[C@@H]3C[C@H](CO)[C@@H](O)[C@H]3O)s2)cs1` [Compound 39], the EC90 is 0.5 to 5 µM.

In the case of `Nc1nc(Cl)c(C#Cc2ccc(C(=O)C(F)(F)F)s2)c(N[C@@H]2C[C@H](CO)[C@@H](O)[C@H]2O)n1` [Compound 40], the EC90 is 0.5 to 5 µM.

Turning to `Nc1nc(Cl)c(C#Cc2ccc(-c3ccno3)s2)c(N[C@@H]2C[C@H](CO)[C@@H](O)[C@H]2O)n1` [Compound 43], the EC90 is 0.5 to 5 µM.

For `Nc1nc(Cl)c(C#Cc2ccc(-c3ccccc3)cc2)c(N[C@@H]2C[C@H](CO)[C@@H](O)[C@H]2O)n1` [Compound 44], the EC90 is 0.5 to 5 µM.

`Nc1nc(Cl)c(C#Cc2cncnc2)c(N[C@@H]2C[C@H](CO)[C@@H](O)[C@H]2O)n1` [Compound 45]: the EC90 fell in the range of 0.5 to 5 µM.

As for `Cc1csc(C#Cc2c(Cl)nc(N)nc2N[C@@H]2C[C@H](CO)[C@@H](O)[C@H]2O)n1` [Compound 46], the EC90 is more than 5 µM.

As for `Nc1nc(Cl)c(C#Cc2ncc(CO)s2)c(N[C@@H]2C[C@H](CO)[C@@H](O)[C@H]2O)n1` [Compound 47], the EC90 was more than 5 µM.

For `CN(C)c1nc(Cl)c(C#Cc2cccs2)c(N[C@@H]2C[C@H](CO)[C@@H](O)[C@H]2O)n1` [Compound 48], the EC90 is more than 5 µM.

As to `CNc1nc(Cl)c(C#Cc2ccccc2C(=O)OC(C)C)c(N[C@@H]2C[C@H](CO)[C@@H](O)[C@H]2O)n1` [Compound 50], the EC90 was 0.5 to 5 µM.

With `CCNC(=O)c1ncccc1C#Cc1c(Cl)nc(N)nc1N[C@@H]1C[C@H](CO)[C@@H](O)[C@H]1O` [Compound 56], the EC90 lay in the range of 0.5 to 5 µM.

Take `CNC(=O)c1ncccc1C#Cc1c(Cl)nc(N)nc1N[C@@H]1C[C@H](CO)[C@@H](O)[C@H]1O` [Compound 57]: the EC90 was 0.5 to 5 µM.

`Nc1nc(Cl)c(C#Cc2ccccc2Cl)c(N[C@@H]2C[C@H](CO)[C@@H](O)[C@H]2O)n1` [Compound 60]: the EC90 lay in the range of 0.5 to 5 µM.

Consider `COC[C@H]1C[C@@H](Nc2nc(N)nc(Cl)c2C#Cc2ccsc2)[C@H](O)[C@@H]1O` [Compound 61], for which the EC90 fell in the range of 0.5 to 5 µM.

For the compound `COC(=O)c1ncccc1C#Cc1c(Cl)nc(N(C)C)nc1N[C@@H]1C[C@H](CO)[C@@H](O)[C@H]1O` [Compound 62], the EC90 was 0.5 to 5 µM.

For `Cc1nc(-c2nccs2)ccc1C#Cc1c(Cl)nc(N)nc1N[C@@H]1C[C@H](CO)[C@@H](O)[C@H]1O` [Compound 63], the EC90 is not above 0.5 µM.

`CSc1ccc(C#Cc2c(Cl)nc(N)nc2N[C@@H]2C[C@H](CO)[C@@H](O)[C@H]2O)c(C)n1` [Compound 64]: the EC90 was not above 0.5 µM.

Turning to `CNc1nc(Cl)c(C#Cc2ccc(OC)nc2C)c(N[C@@H]2C[C@H](CO)[C@@H](O)[C@H]2O)n1` [Compound 65], the EC90 was not above 0.5 µM.

In the case of `CNc1nc(Cl)c(C#Cc2ccc(SC)nc2C)c(N[C@@H]2C[C@H](CO)[C@@H](O)[C@H]2O)n1` [Compound 66], the EC90 was not above 0.5 µM.

Turning to `COCCNc1nc(Cl)c(C#Cc2ccc(OC)nc2C)c(N[C@@H]2C[C@H](CO)[C@@H](O)[C@H]2O)n1` [Compound 67], the EC90 is not above 0.5 µM.

Take `COc1ccc(C#Cc2c(Cl)nc(NCC(F)(F)F)nc2N[C@@H]2C[C@H](CO)[C@@H](O)[C@H]2O)c(C)n1` [Compound 68]: the EC90 was not above 0.5 µM.

`COCCNc1nc(Cl)c(C#Cc2ccc(OCC(F)(F)F)nc2C)c(N[C@@H]2C[C@H](CO)[C@@H](O)[C@H]2O)n1` [Compound 69]: the EC90 was 0.5 to 5 µM.

For `Cc1nc(OCC(F)(F)F)ccc1C#Cc1c(Cl)nc(NCC(F)(F)F)nc1N[C@@H]1C[C@H](CO)[C@@H](O)[C@H]1O` [Compound 70], the EC90 is 0.5 to 5 µM.

Consider `CCOc1ccc(C#Cc2c(Cl)nc(NCCOC)nc2N[C@@H]2C[C@H](CO)[C@@H](O)[C@H]2O)c(C)n1` [Compound 71], for which the EC90 is not above 0.5 µM.

On to `CCOc1ccc(C#Cc2c(Cl)nc(NCC(F)(F)F)nc2N[C@@H]2C[C@H](CO)[C@@H](O)[C@H]2O)c(C)n1` [Compound 72], for which the EC90 was not above 0.5 µM.

`CCOc1ccc(C#Cc2c(Cl)nc(NCCOC)nc2N[C@@H]2C[C@H](CO)[C@@H](O)[C@H]2O)cn1` [Compound 73]: the EC90 is not above 0.5 µM.

Consider `CCOc1ccc(C#Cc2c(Cl)nc(NCC(F)(F)F)nc2N[C@@H]2C[C@H](CO)[C@@H](O)[C@H]2O)cn1` [Compound 74], for which the EC90 was not above 0.5 µM.
